Assay results reported in patent US20260216116A1, “QUATERNARY AMMONIUM COMPOUNDS (QACS) AND PROCESS FOR PREPARATION THEREOF” (priority 2023, published 2026).

Test: Dissociation of 1 carboxy N—N—N trimethylmethanaminium benzoate in buffer solutions
Format: physicochemical
Method: Sample Preparation: 750 mg sample was dissolved in 250 mL of respective buffer solution and kept in orbital shaker at 37° C. for 30 minutes, 1 hour and 2 hours in separate flask. […]

[1] = pH 1.2 (0.1N HCl), 1 Hours, 37° C.
[2] = pH 1.2 (0.1N HCl), 2 Hours, 37° C.
[3] = pH 1.2 (0.1N HCl), 30 Minutes, 37° C.
[4] = pH 1.2 (0.1N HCl), Initial, 750 mg in 250 mL, 37° C.
[5] = pH 6.8 (Phosphate Buffer), 1 Hours, 37° C.
[6] = pH 6.8 (Phosphate Buffer), 2 Hours, 37° C.
[7] = pH 6.8 (Phosphate Buffer), 30 Minutes, 37° C.
[8] = pH 6.8 (Phosphate Buffer), Initial
[9] = pH 6.8 (Phosphate Buffer), Initial, 750 mg in 250 mL, 37° C.

## C[N+](C)(C)CC(=O)O.O=C([O-])c1ccccc1 [1-carboxy-N—N—N-trimethylmethanaminium benzoate]
1.2 pH
  Dissociation: completely dissociated
6.8 pH
  Dissociation: completely dissociated
Control
  Concentration in %: 1 carboxy N-N-N trimethylmethanaminium, %: 70%
  Concentration in %: Benzoic acid, %: 36%
[1]
  %, Dissociation of 1 carboxy N-N-N trimethylmethanaminium: 100%
  %, Dissociation of Benzoic acid: 115%
  Concentration in %: 1 carboxy N-N-N trimethylmethanaminium, %: 69%
  Concentration in %: Benzoic acid, %: 41%
[2]
  %, Dissociation of 1 carboxy N-N-N trimethylmethanaminium: 100%
  %, Dissociation of Benzoic acid: 114%
  Concentration in %: 1 carboxy N-N-N trimethylmethanaminium, %: 70%
  Concentration in %: Benzoic acid, %: 41%
[3]
  %, Dissociation of 1 carboxy N-N-N trimethylmethanaminium: 98%
  %, Dissociation of Benzoic acid: 115%
  Concentration in %: 1 carboxy N-N-N trimethylmethanaminium, %: 68%
  Concentration in %: Benzoic acid, %: 41%
pH 1.2 (0.1N HCl), Initial
  %, Dissociation of 1 carboxy N-N-N trimethylmethanaminium: 97%
  %, Dissociation of Benzoic acid: 94%
[4]
  Concentration in %: 1 carboxy N-N-N trimethylmethanaminium, %: 67%
  Concentration in %: Benzoic acid, %: 34%
[5]
  %, Dissociation of 1 carboxy N-N-N trimethylmethanaminium: 97%
  %, Dissociation of Benzoic acid: 109%
  Concentration in %: 1 carboxy N-N-N trimethylmethanaminium, %: 70%
  Concentration in %: Benzoic acid, %: 40%
[6]
  %, Dissociation of 1 carboxy N-N-N trimethylmethanaminium: 99%
  %, Dissociation of Benzoic acid: 108%
  Concentration in %: 1 carboxy N-N-N trimethylmethanaminium, %: 71%
  Concentration in %: Benzoic acid, %: 40%
[7]
  %, Dissociation of 1 carboxy N-N-N trimethylmethanaminium: 98%
  %, Dissociation of Benzoic acid: 109%
  Concentration in %: 1 carboxy N-N-N trimethylmethanaminium, %: 71%
  Concentration in %: Benzoic acid, %: 40%
[8]
  %, Dissociation of 1 carboxy N-N-N trimethylmethanaminium: 96%
  %, Dissociation of Benzoic acid: 97%
[9]
  Concentration in %: 1 carboxy N-N-N trimethylmethanaminium, %: 69%
  Concentration in %: Benzoic acid, %: 36%
